Data on 13 compounds can be found in patent US10160726B2, “Quinolone derivatives as antibacterials” (priority 2014, dated 2018).

In brackets after ≈: the same amount, converted by molar mass. Where a name gives a salt, the structure may show the parent alone. Read-outs that look alike come from different tables or passages of the source. A value given as a limit tells only on which side of the number the result lay.

What all share (assay type): cell-based
Experiment [1] relates to S. aureus ATCC 29213 (NB01001). Briefly: MIC, broth microdilution (CLSI). As to conditions: Staphylococcus aureus, ATCC29213; S. aureus ATCC 29213; 35° C., 20 hours; read-out: Antibacterial activity (MIC) NB01001. A general note: Dilution methods test growth across graded concentrations, often in twofold steps.
Experiment [2] has as its system E. coli ATCC 25922 (NB27001). Briefly: MIC, broth microdilution (CLSI). As to conditions: Escherichia coli, ATCC25922; E. coli ATCC 25922; 35° C., 20 hours; read-out: Antibacterial activity (MIC) NB27001.
Experiment [3] has as its system E. coli NB27177 (efflux deficient CGSC 11430, ΔtolC732::kan). The experiment is described as follows: microbe, parasite or virus in culture. As to conditions: Escherichia coli, 20 h, read-out: Antibacterial activity (MIC) NB27177.
In experiment [4] the test system is S. aureus NB01006-AVR005 (gyrA S84L, grlA S80F, grlB E471K). The experiment is described as follows: microbe, parasite or virus in culture. The note with it: Staphylococcus aureus, 20 h, read-out: Antibacterial activity (MIC) NB01006-AVR005.
In experiment [5] the test system is P. aeruginosa NB52019 (wild-type PAO1). The experiment is described as follows: MIC, broth microdilution (CLSI). The note with it: Pseudomonas aeruginosa, read-out: Antibacterial activity (MIC) NB52019.
Experiment [6] deals with P. aeruginosa NB52023-CDK0006 (gyrA T83I, parC S87L). The experiment is described as follows: microbe, parasite or virus in culture. As to conditions: Pseudomonas aeruginosa, 20 h, read-out: Antibacterial activity (MIC) NB52023-CDK0006.
For experiment [7], the system named is P. aeruginosa NB52023 (efflux deficient K1542, ΔmexX ΔmexB). The experiment is described as follows: microbe, parasite or virus in culture. As to conditions: Pseudomonas aeruginosa, 20 h, read-out: Antibacterial activity (MIC) NB52023.
[8] abbreviates: P. aeruginosa wild-type PAO1, 35° C., 20 hours.

For `COc1cc2ccc(N3CC[C@@H]([C@H](C)N)C3)c(C)c2n(C2CC2)c1=O` [Example 80, 7-((R)-3-((S)-1-aminoethyl)pyrrolidin-1-yl)-1-cyclopropyl-3-methoxy-8-methylquinolin-2(1H)-one TFA salt], the MIC is 1 µg/mL in experiment [1]; 32 µg/mL in experiment [2]; 2 µg/mL in experiment [3]; 2 µg/mL in experiment [4]; greater than 32 µg/mL in experiment [5] (PAO1, 20 h); greater than 32 µg/mL in experiment [6]. For the same compound, the MIC in experiment [7] is greater than 32 µg/mL.

`Cc1c(N2CCNCC2)c(F)cc2c(CN)cc(=O)n(C3CC3)c12` [Example 81.09, 4-(aminomethyl)-1-cyclopropyl-6-fluoro-8-methyl-7-(piperazin-1-yl)quinolin-2(1H)-one]: the MIC is 16 µg/mL (≈ 48.4 µM) in experiment [1]; 2 µg/mL (≈ 6.05 µM) in experiment [2]; 0.5 µg/mL (≈ 1.51 µM) in experiment [3]; 16 µg/mL (≈ 48.4 µM) in experiment [4]; 4 µg/mL (≈ 12.1 µM) in experiment [5] (setting [8]); 2 µg/mL (≈ 6.05 µM) in experiment [6]. The MIC in experiment [7] stood at 0.5 µg/mL (≈ 1.51 µM).

As to `Cc1c(N2CC3CC3(N)C2)c(F)cc2c(CN)cc(=O)n(C3CC3)c12` (stereo not shown) [Example 81.23, 7-(1-amino-3-azabicyclo[3.1.0]hexan-3-yl)-4-(aminomethyl)-1-cyclopropyl-6-fluoro-8-methylquinolin-2(1H)-one], the MIC turned out to be 0.5 µg/mL (≈ 1.46 µM) in experiment [1]; 0.25 µg/mL (≈ 0.73 µM) in experiment [2]; 0.06 µg/mL (≈ 0.175 µM) in experiment [3]; 0.5 µg/mL (≈ 1.46 µM) in experiment [4]; 4 µg/mL (≈ 11.7 µM) in experiment [5] (PAO1, 20 h); 1 µg/mL (≈ 2.92 µM) in experiment [6]. Further, the MIC in experiment [7] was 0.5 µg/mL (≈ 1.46 µM).

Turning to `Cc1c(N2CC[C@H](O)C2)c(F)cc2c(CN)cc(=O)n(C3CC3)c12` [Example 81.32, (S)-4-(aminomethyl)-1-cyclopropyl-6-fluoro-7-(3-hydroxypyrrolidin-1-yl)-8-methylquinolin-2(1H)-one], the MIC in experiment [1] is 0.5 µg/mL (≈ 1.51 µM); in experiment [2], 0.5 µg/mL (≈ 1.51 µM); in experiment [3], less than 0.03 µg/mL; in experiment [4], 1 µg/mL (≈ 3.02 µM); in experiment [5] (PAO1, 20 h), 4 µg/mL (≈ 12.1 µM); in experiment [6], 1 µg/mL (≈ 3.02 µM). The MIC in experiment [7] stood at 0.25 µg/mL (≈ 0.754 µM).

For the compound `Cc1c(N2CCC(F)(CN)C2)c(F)cc2c(CN)cc(=O)n(C3CC3)c12` (stereo not shown) [Example 81.33, 4-(aminomethyl)-7-(3-(aminomethyl)-3-fluoropyrrolidin-1-yl)-1-cyclopropyl-6-fluoro-8-methylquinolin-2(1H)-one], the MIC in experiment [1] was determined as 0.5 µg/mL (≈ 1.38 µM); in experiment [2], 0.5 µg/mL (≈ 1.38 µM); in experiment [3], 0.06 µg/mL (≈ 0.166 µM); in experiment [4], 1 µg/mL (≈ 2.76 µM); in experiment [5] (PAO1, 20 h), 2 µg/mL (≈ 5.52 µM); in experiment [6], 1 µg/mL (≈ 2.76 µM). The MIC in experiment [7] was found to be 0.5 µg/mL (≈ 1.38 µM).

Turning to `Cc1c(N2CCC(F)(CN)C2)c(F)c(F)c2c(CN)cc(=O)n(C3CC3)c12` (stereo not shown) [Example 83, 4-(aminomethyl)-7-(3-(aminomethyl)-3-fluoropyrrolidin-1-yl)-1-cyclopropyl-5,6-difluoro-8-methylquinolin-2(1H)-one TFA salt], the MIC was 0.125 µg/mL in experiment [1]; 0.125 µg/mL in experiment [2]; less than 0.03 µg/mL in experiment [3]; 0.125 µg/mL in experiment [4]; 2 µg/mL in experiment [5] (PAO1, 20 h); 0.5 µg/mL in experiment [6]. Moreover, the MIC in experiment [7] is 0.25 µg/mL.

In the case of `Cc1c(N2CC[C@H](N)C2)c(F)c(F)c2c(CN)cc(=O)n(C3CC3)c12` [Example 83.6, (S)-4-(aminomethyl)-7-(3-aminopyrrolidin-1-yl)-1-cyclopropyl-5,6-difluoro-8-methylquinolin-2(1H)-one], the MIC is 1 µg/mL (≈ 2.87 µM) in experiment [1]; 0.5 µg/mL (≈ 1.44 µM) in experiment [2]; 0.06 µg/mL (≈ 0.172 µM) in experiment [3]; 2 µg/mL (≈ 5.74 µM) in experiment [4]; 4 µg/mL (≈ 11.5 µM) in experiment [5] (PAO1, 20 h); 0.5 µg/mL (≈ 1.44 µM) in experiment [6]. In addition, the MIC in experiment [7] is 0.25 µg/mL (≈ 0.718 µM).

Take `Cc1c(N2CCC(CN)C2)c(F)cc2c(CNCCN)cc(=O)n(C3CC3)c12.O=C(O)C(F)(F)F` (stereo not shown) [Example 87, 4-(((2-aminoethyl)amino)methyl)-7-(3-(aminomethyl)pyrrolidin-1-yl)-1-cyclopropyl-6-fluoro-8-methylquinolin-2(1H)-one TFA salt]: the MIC in experiment [1] came to 0.5 µg/mL; in experiment [2], 8 µg/mL; in experiment [3], 0.5 µg/mL; in experiment [4] it was 0.25 µg/mL; in experiment [5] (setting [8]), 16 µg/mL; in experiment [6], 8 µg/mL. Also, the MIC in experiment [7] was 4 µg/mL.

As to `CNCc1cc(=O)n(C2CC2)c2c(C)c(N3CCC(CN)C3)c(F)cc12.O=C(O)C(F)(F)F` (stereo not shown) [Example 88, 7-(3-(aminomethyl)pyrrolidin-1-yl)-1-cyclopropyl-6-fluoro-8-methyl-4-((methylamino)methyl)quinolin-2(1H)-one TFA salt], the MIC turned out to be 1 µg/mL in experiment [1]; 4 µg/mL in experiment [2]; 0.25 µg/mL in experiment [3]; 2 µg/mL in experiment [4]; 16 µg/mL in experiment [5] (setting [8]); 4 µg/mL in experiment [6]. Besides, the MIC in experiment [7] was 2 µg/mL.

As to `Cc1c(N2CCC(CN)C2)c(F)cc2c(CN(C)C)cc(=O)n(C3CC3)c12.O=C(O)C(F)(F)F` (stereo not shown) [Example 89, 7-(3-(aminomethyl)pyrrolidin-1-yl)-1-cyclopropyl-4-((dimethylamino)methyl)-6-fluoro-8-methylquinolin-2(1H)-one TFA salt], the MIC is 1 µg/mL in experiment [1]; 4 µg/mL in experiment [2]; 0.5 µg/mL in experiment [3]; 4 µg/mL in experiment [4]; greater than 32 µg/mL in experiment [5] (setting [8]); 32 µg/mL in experiment [6]. Further, the MIC in experiment [7] came to 16 µg/mL.

On to `Cc1c(N2CCC(CN)C2)c(F)cc2c(CCN)cc(=O)n(C3CC3)c12.O=C(O)C(F)(F)F` (stereo not shown) [Example 91, 4-(2-aminoethyl)-7-(3-(aminomethyl)pyrrolidin-1-yl)-1-cyclopropyl-6-fluoro-8-methylquinolin-2(1H)-one TFA salt], for which the MIC turned out to be 1 µg/mL in experiment [1]; 8 µg/mL in experiment [2]; 1 µg/mL in experiment [3]; 1 µg/mL in experiment [4]; 16 µg/mL in experiment [5] (setting [8]); 16 µg/mL in experiment [6]. The MIC in experiment [7] was 8 µg/mL.

For the compound `Cc1c(N2CCC(F)(CN)C2)c(F)cc2cc(CN)c(=O)n(C3CC3)c12` (stereo not shown) [Example 93, 3-(aminomethyl)-7-(3-(aminomethyl)-3-fluoropyrrolidin-1-yl)-1-cyclopropyl-6-fluoro-8-methylquinolin-2(1H)-one formic acid salt], the MIC in experiment [1] worked out at 2 µg/mL; in experiment [2], 8 µg/mL; in experiment [3], 1 µg/mL; in experiment [4], 16 µg/mL; in experiment [5] (PAO1, 20 h), 8 µg/mL; in experiment [6], 8 µg/mL. The MIC in experiment [7] amounted to 4 µg/mL.

As for `Cc1c(N2CCC(CN)C2)c(F)c(C#N)c2ccc(=O)n(C3CC3)c12.O=C(O)C(F)(F)F` (stereo not shown) [Example 99, 7-(3-(aminomethyl)pyrrolidin-1-yl)-1-cyclopropyl-6-fluoro-8-methyl-2-oxo-1,2-dihydroquinoline-5-carbonitrile TFA salt], the MIC in experiment [1] is 0.125 µg/mL; in experiment [2], 4 µg/mL; in experiment [3] it was 0.125 µg/mL; in experiment [4] it was 0.06 µg/mL; in experiment [5] (setting [8]) it was greater than 32 µg/mL; in experiment [6] it was 4 µg/mL. Also, the MIC in experiment [7] stood at 2 µg/mL.
